In article PMC8269692 (Biochemistry, 2021):
Values belong to the compound of their own block, whether it stands above or below them.

Molecular target: T1, human macrophage galactose-type lectin (hMGL) extracellular domain (Homo sapiens, UniProt Q8IUN9)
T1 sequence (Q8IUN9 with tags, fused parts or gaps isoform Q8IUN9-2): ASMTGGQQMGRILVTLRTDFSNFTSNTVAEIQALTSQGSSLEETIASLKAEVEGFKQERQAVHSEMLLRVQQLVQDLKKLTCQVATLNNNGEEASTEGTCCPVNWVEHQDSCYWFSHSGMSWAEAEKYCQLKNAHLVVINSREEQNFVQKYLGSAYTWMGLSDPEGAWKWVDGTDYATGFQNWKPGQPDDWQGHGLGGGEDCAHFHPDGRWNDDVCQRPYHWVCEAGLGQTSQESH
Assay: ITC titration of ligands into hMGL
Assay type: binding
Conditions: for KA: one-set-of-sites model

[1] = ITC, buffered D2O (10 mM HEPES sodium salt, 50 mM NaCl, 2 mM CaCl2, pH 7.4), 25 °C
[2] = ITC, buffered D2O, pH 7.4, 25 °C
[3] = ITC, buffered H2O (10 mM HEPES sodium salt, 50 mM NaCl, 2 mM CaCl2, pH 7.4), 25 °C
[4] = ITC, buffered H2O, pH 7.4, 25 °C
[5] = deuterium isotope effect, DIE = H2O – D2O

Kd [1]: 7.25 µM
KA [1]: 13.79 ×10^4 M^–1
n (number of binding sites, stoichiometry) [2]: 0.97
ΔG [2]: –7.01 kcal mol^–1
ΔH [2]: –6.81 kcal mol^–1
Δ−(TΔS) [2]: –0.20 kcal mol^–1
Kd [3]: 17.7 µM
KA [3]: 5.64 ×10^4 M^–1
ΔG [4]: –6.49 kcal mol^–1
ΔH [4]: –11.30 kcal mol^–1
Δ−(TΔS) [4]: 4.81 kcal mol^–1
n (number of binding sites, stoichiometry) (ITC, buffered H2O, pH 7.4, 25 °C, n normalized to active cell concentration of the dissociating trimer): 0.99
ΔΔG [5]: 0.52 kcal mol^–1
ΔΔH [5]: –4.49 kcal mol^–1
Δ−(TΔS) [5]: 5.01 kcal mol^–1
ΔΔH (deuterium isotope effect, DIE = H2O – D2O, listed as free glycan): −4.49 kcal mol^–1
SMILES: CC(=O)N[C@H]1C(O)O[C@H](CO)[C@H](O)[C@@H]1O (stereo partly drawn) [GalNAc, N-acetyl-D-galactosamine]

Kd [3]: 16 to 17 µM
SMILES: CC(=O)N[C@H]1[C@@H](O[C@H](C)[C@H](N)C(=O)O)O[C@H](CO)[C@H](O)[C@@H]1O [Thr-Tn]

affinity for hMGL (result in words) (ITC, buffered H2O, 25 °C): no indication of a detectable affinity
SMILES: CO[C@@H]1O[C@H](CO)[C@@H](O)[C@H](O)[C@H]1O [methyl β-glucopyranoside]

affinity relative to β-anomer and GalNAcα1-O-Thr conjugate (ITC, buffered H2O, 25 °C): 2 fold
SMILES: CO[C@H]1O[C@H](CO)[C@H](O)[C@H](O)[C@H]1NC(C)=O [α-Me-GalNAc, Methyl N-acetyl-α-D-galactosamine]
